A short description of series [1]: Moisture sorption/desorption (moisture balance). The series is classed as physicochemical. The note with it: for weight loss at 5% RH: sample not dried prior to analysis; for hygroscopicity: based on moisture sorption/desorption data. As to the method:
The moisture sorption/desorption data was collected on a VT SGA-100 moisture balance system. […] The sample was not dried prior to analysis. Equilibrium criteria used for analysis was less than 0.0100% weight change in 5 minutes with a maximum equilibration time of 3 hours if the weight criterion was not met. Data was not corrected for the initial moisture content of the samples.

A short description of series [2]: Interconversion studies of Forms A and B. The series is classed as physicochemical. The text has this:
The interconversion of Forms A and B were preformed using ethyl acetate and 95% isopropanol:water. […] The interconversions in ethyl acetate yielded a mixture of Forms A and B, which is probably due to the low solublility of the materials.

For series [3] the following is noted: ambient temperature, sodium salt.
A further series can be described thus: physchem. The note with it: thermodynamic from solid, SOLUBILITY (mg/mL), ambient temperature.
The mark [4] stands for this setting: listed as Sample lot I Form A, sodium salt.
Where [5] appears, read: listed as Sample lot III Form A, sodium salt.
The mark [6] stands for this setting: listed as Sample lot IV Form A, sodium salt.

SMILES strings stand for the structures. “Also recorded” adds a separate entry of the source. Read-outs that look alike come from different tables or passages of the source.

For the compound `Cc1cc2c(cc1CC(=O)c1sccc1S(=O)(=O)Nc1onc(C)c1Cl)OCO2.[Na]` [Amorphous, N-(4-chloro-3-methyl-5-isoxazolyl)-2-[2-methyl-4,5-(methylenedioxy)phenylacetyl]thiophene-3-sulfonamide, sodium salt], in series [1], the “weight loss at 5% RH” value is 1.4% weight loss at 5% RH, and the hygroscopicity result is given as “highly hygroscopic”. Also, in series [1] (listed as amorphous form, sodium salt), the “total weight gain at 95% RH” value is reported as 22%. Also, the “total weight gain at 95% RH” value in series [1] (sodium salt) is listed as 22.0.% total weight gain at 95% RH.

With `Cc1cc2c(cc1CC(=O)c1sccc1S(=O)(=O)[N-]c1onc(C)c1Cl)OCO2.[Na+]` [Form B, N-(4-chloro-3-methyl-5-isoxazolyl)-2-[2-methyl-4,5-(methylenedioxy)phenylacetyl]thiophene-3-sulfonamide, sodium salt], in series [1] (sodium salt), the “weight loss at 5% RH” value is given as 0.13% weight loss at 5% RH, and the “total weight gain at 95% RH” value is on record as 0.98% total weight gain at 95% RH. In series [1] (5 to 95% RH sorption, 95 to 5% RH desorption), the “weight change during the moisture sorption/desorption experiment” value is “loses and gains minimal weight”.

One may read the solubility as the dissolved amount per volume that the medium holds. With `Cc1cc2c(cc1CC(=O)c1sccc1S(=O)(=O)[N-]c1onc(C)c1Cl)OCO2.[Na+]` [Form A, N-(4-chloro-3-methyl-5-isoxazolyl)-2-[2-methyl-4,5-(methylenedioxy)phenylacetyl]thiophene-3-sulfonamide, sodium salt], the “weight loss at 5% RH” value is listed as 0.18% weight loss at 5% RH, in series [1] (setting [4]), 0.04% weight loss at 5% RH, in series [1] (setting [5]), 0.05% weight loss at 5% RH, in series [1] (setting [6]) and “minimal weight” in series [1] (sodium salt). For the same compound, the “total weight gain at 95% RH” value in series [1] (setting [4]) was 1.48% total weight gain at 95% RH; in series [1] (setting [5]), 1.08% total weight gain at 95% RH; in series [1] (setting [6]) it was 1.10% total weight gain at 95% RH; in series [1] (sodium salt) it was “less than 1.5%”. Also, the hygroscopicity result in series [1] (sodium salt) is recorded as “non-hygroscopic up to 75% RH; also recorded: nonhygroscopic”. Also, the “relative thermodynamic stability of the forms” value in series [2] (interconversion in 95% isopropanol:water) is reported as “more thermodynamically stable form”; in series [2] (interconversion studies, solvent not stated), “more thermodynamically stable form”. For the same compound, the “relative stability of the forms” value in series [2] (interconversion studies in ethyl acetate (so in the source)) is on record as “most stable form”. The “solubility” value in series [3] (N,N-dimethylformamide (DMF)) was above 228 mg/mL; in series [3] (chloroform), below 3 mg/mL; in series [3] (dichloromethane), below 3 mg/mL; in series [3] (methyl t-butyl ether (MTBE)), below 3 mg/mL; in the series “physchem” (organic solvent or mixture, N,N-dimethylformamide (DMF)), 228 mg/mL; in “physchem” (organic solvent or mixture, acetone), 96 mg/mL. In addition, the solubility in “physchem” (organic solvent or mixture, acetonitrile (ACN)) was 25 mg/mL; in “physchem” (organic solvent or mixture, chloroform), below 3 mg/mL; in the series “physchem” (organic solvent or mixture, dichloromethane) it was below 3 mg/mL; in “physchem” (organic solvent or mixture, ethanol (EtOH)), 60 mg/mL; in “physchem” (organic solvent or mixture, ethyl acetate (EtOAc)), 6 mg/mL; in “physchem” (organic solvent or mixture, hexanes), below 8 mg/mL. For the same compound, the solubility in the series “physchem” (organic solvent or mixture, isopropanol (IPA)) is below 4 mg/mL; in “physchem” (organic solvent or mixture, methanol (MeOH)), 160 mg/mL; in the series “physchem” (organic solvent or mixture, methyl ethyl ketone (MEK)) it was 34 mg/mL; in the series “physchem” (organic solvent or mixture, methyl t-butyl ether (MTBE)), below 3 mg/mL; in the series “physchem” (organic solvent or mixture, tetrahydrofuran (THF)), 86 mg/mL; in “physchem” (organic solvent or mixture, toluene), below 7 mg/mL. In “physchem” (water), the solubility turned out to be 48 mg/mL.

Values taken from patent US20090104265A1, “Polymorphs of N-(4-chloro-3-methyl-5-isoxazolyl) 2-[2-methyl-4,5-(methylenedioxy)phenylacetyl] thiophene-3-sulfonamide, sodium salt” (priority 2006, published 2009).
